The target of the test is human NAMPT enzyme (His-hNAMPT) (Homo sapiens (Human), UniProt P43490). As to the kind of experiment: NAMPT enzymatic inhibition assay (fluorescence, NADH product). The format is biochemical.
Where [1] appears, read: [HDB], read-out: NAMPT IC50 (μM) [HDB].
[2] abbreviates: [BPS], read-out: NAMPT IC50 (μM) [BPS].

Where two headings read alike, the source gives them in different places.

Sequence of human NAMPT enzyme (His-hNAMPT) (P43490 whole entry): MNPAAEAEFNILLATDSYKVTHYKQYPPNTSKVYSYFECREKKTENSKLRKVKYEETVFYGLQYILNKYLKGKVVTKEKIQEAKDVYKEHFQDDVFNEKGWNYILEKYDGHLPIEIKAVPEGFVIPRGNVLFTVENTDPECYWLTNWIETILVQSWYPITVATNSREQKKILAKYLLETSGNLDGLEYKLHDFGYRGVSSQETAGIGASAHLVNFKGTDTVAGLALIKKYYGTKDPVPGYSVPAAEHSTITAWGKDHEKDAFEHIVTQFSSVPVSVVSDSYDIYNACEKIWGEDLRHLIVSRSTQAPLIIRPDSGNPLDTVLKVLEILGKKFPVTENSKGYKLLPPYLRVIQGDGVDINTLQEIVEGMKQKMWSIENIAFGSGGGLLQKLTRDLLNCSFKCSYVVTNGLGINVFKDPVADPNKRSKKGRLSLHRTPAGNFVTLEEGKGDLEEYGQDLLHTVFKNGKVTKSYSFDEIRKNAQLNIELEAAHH

`CC(=O)Nc1cccc(N2C[C@@H]3[C@@H](CCNC(=O)/C=C/c4cccnc4)[C@@H]3C2)c1` [Example 184, (E)-N-(2-((1R,5S,6s)-3-(3-acetamidophenyl)-3-azabicyclo[3.1.0]hexan-6-yl)ethyl)-3-(pyridin-3-yl)acrylamide]: under setting [1], the IC50 (in general, the concentration that inhibits the measured activity by half) was in the range of 0.01 to 0.49 µM.

On to `CS(=O)(=O)Nc1cccc(N2C[C@@H]3[C@@H](CCNC(=O)/C=C/c4cccnc4)[C@@H]3C2)c1` [Example 185, (E)-N-(2-((1R,5S,6s)-3-(3-(methylsulfonamido)phenyl)-3-azabicyclo[3.1.0]hexan-6-yl)ethyl)-3-(pyridin-3-yl)acrylamide], for which the IC50 under setting [1] was in the range of 0.01 to 0.49 µM.

For `NC(=O)c1ccc(N2C[C@@H]3[C@@H](CCNC(=O)/C=C/c4cccnc4)[C@@H]3C2)cc1` [Example 186, 4-((1R,5S,6s)-6-(2-((E)-3-(pyridin-3-yl)acrylamido)ethyl)-3-azabicyclo[3.1.0]hexan-3-yl)benzamide], the IC50 under setting [1] lay within 0.01 to 0.49 µM.

Regarding `O=C(/C=C/c1cccnc1)NCC[C@@H]1[C@H]2CN(c3ncc(F)c(O)n3)C[C@@H]12` [Example 187, (E)-N-(2-((1R,5S,6s)-3-(5-fluoro-4-hydroxypyrimidin-2-yl)-3-azabicyclo[3.1.0]hexan-6-yl)ethyl)-3-(pyridin-3-yl)acrylamide], under setting [1], the IC50 lay within 0.01 to 0.49 µM.

For the compound `O=C(/C=C/c1cccnc1)NCC[C@@H]1[C@H]2CN(c3ncc(F)c(Cl)n3)C[C@@H]12` [Example 188, (E)-N-(2-((1R,5S,6s)-3-(4-chloro-5-fluoropyrimidin-2-yl)-3-azabicyclo[3.1.0]hexan-6-yl)ethyl)-3-(pyridin-3-yl)acrylamide], under setting [1], the IC50 was below 0.01 µM.

Take `Nc1ccc(/C=C/C(=O)NCC[C@@H]2[C@H]3CN(c4ncccn4)C[C@@H]23)cn1` [Example 189, (E)-3-(6-aminopyridin-3-yl)-N-(2-((1R,5S,6s)-3-(pyrimidin-2-yl)-3-azabicyclo[3.1.0]hexan-6-yl)ethyl)acrylamide]: the IC50 under setting [2] is 0.01 to 0.49 µM.

For the compound `Nc1ccc(/C=C/C(=O)NCC[C@@H]2[C@H]3CN(c4nc5ccccc5s4)C[C@@H]23)cn1` [Example 190, (E)-3-(6-aminopyridin-3-yl)-N-(2-((1R,5S,6s)-3-(benzo[d]thiazol-2-yl)-3-azabicyclo[3.1.0]hexan-6-yl)ethyl)acrylamide], the half-maximal inhibitory concentration (IC50) under setting [2] was in the range of 0.01 to 0.49 µM.

Consider `Nc1ccc(/C=C/C(=O)NCC[C@@H]2[C@H]3CN(c4cccc5ccccc45)C[C@@H]23)cn1` [Example 191, (E)-3-(6-aminopyridin-3-yl)-N-(2-((1R,5S,6s)-3-(naphthalen-1-yl)-3-azabicyclo[3.1.0]hexan-6-yl)ethyl)acrylamide], for which the IC50 under setting [2] fell in the range of 0.01 to 0.49 µM.

With `Nc1ccc(/C=C/C(=O)NCC[C@@H]2[C@H]3CN(c4ccccc4)C[C@@H]23)cn1` [Example 192, (E)-3-(6-aminopyridin-3-yl)-N-(2-((1R,5S,6s)-3-phenyl-3-azabicyclo[3.1.0]hexan-6-yl)ethyl)acrylamide], under setting [2], the IC50 fell in the range of 0.01 to 0.49 µM.

Turning to `O=C(NCC[C@@H]1[C@H]2CN(c3ccccc3)C[C@@H]12)c1cc2ccncc2o1` [Example 193, N-(2-((1R,5S,6s)-3-phenyl-3-azabicyclo[3.1.0]hexan-6-yl)ethyl)furo[2,3-c]pyridine-2-carboxamide], the half-maximal inhibitory concentration (IC50) under setting [1] was below 0.01 µM.

As to `O=C(NCC[C@@H]1[C@H]2CN(c3ncccn3)C[C@@H]12)c1cc2cnccc2[nH]1` [Example 194, N-(2-((1R,5S,6s)-3-(pyrimidin-2-yl)-3-azabicyclo[3.1.0]hexan-6-yl)ethyl)-1H-pyrrolo[3,2-c]pyridine-2-carboxamide], the IC50 under setting [1] was 0.01 to 0.49 µM.

Turning to `O=C(/C=C/c1cccnc1)NCC[C@@H]1[C@H]2CN(c3ccc(F)cc3)C[C@@H]12` [Example 195, (E)-N-(2-((1R,5S,6s)-3-(4-fluorophenyl)-3-azabicyclo[3.1.0]hexan-6-yl)ethyl)-3-(pyridin-3-yl)acrylamide], under setting [1], the IC50 was in the range of 0.01 to 0.49 µM.

For the compound `O=C(NCC[C@@H]1[C@H]2CN(c3ccc(F)cc3)C[C@@H]12)c1cc2ccncc2o1` [Example 196, N-(2-((1R,5S,6s)-3-(4-fluorophenyl)-3-azabicyclo[3.1.0]hexan-6-yl)ethyl)furo[2,3-c]pyridine-2-carboxamide], under setting [1], the IC50 is 0.01 to 0.49 µM.

Take `O=C(NCC[C@@H]1[C@H]2CN(c3cccc(F)c3)C[C@@H]12)c1cc2ccncc2o1` [Example 197, N-(2-((1R,5S,6s)-3-(3-fluorophenyl)-3-azabicyclo[3.1.0]hexan-6-yl)ethyl)furo[2,3-c]pyridine-2-carboxamide]: under setting [1], the IC50 lay within 0.01 to 0.49 µM.

In the case of `O=C(NCC[C@@H]1[C@H]2CN(c3ccccc3)C[C@@H]12)c1cc2cnccc2[nH]1` [Example 198, N-(2-((1R,5S,6s)-3-phenyl-3-azabicyclo[3.1.0]hexan-6-yl)ethyl)-1H-pyrrolo[3,2-c]pyridine-2-carboxamide], under setting [1], the IC50 is 0.01 to 0.49 µM.

As for `O=C(NCC[C@@H]1[C@H]2CN(c3ncccn3)C[C@@H]12)c1cnc2nccn2c1` [Example 199, N-(2-((1R,5S,6s)-3-(pyrimidin-2-yl)-3-azabicyclo[3.1.0]hexan-6-yl)ethyl)imidazo[1,2-a]pyrimidine-6-carboxamide], the IC50 under setting [1] was 0.01 to 0.49 µM.

`O=C(NCC[C@@H]1[C@H]2CN(c3ncccn3)C[C@@H]12)c1cc2ccncc2s1` [Example 200, N-(2-((1R,5S,6s)-3-(pyrimidin-2-yl)-3-azabicyclo[3.1.0]hexan-6-yl)ethyl)thieno[2,3-c]pyridine-2-carboxamide]: under setting [1], the IC50 is 0.01 to 0.49 µM.

For the compound `Nc1ccc(/C=C/C(=O)NCC[C@@H]2[C@H]3CN(c4cccc(F)c4)C[C@@H]23)cn1` [Example 201, (E)-3-(6-aminopyridin-3-yl)-N-(2-((1R,5S,6s)-3-(3-fluorophenyl)-3-azabicyclo[3.1.0]hexan-6-yl)ethyl)acrylamide], the IC50 under setting [1] was below 0.01 µM.

For `Nc1ccc(/C=C/C(=O)NCC[C@@H]2[C@H]3CN(c4cccc(C(F)(F)F)c4)C[C@@H]23)cn1` [Example 202, (E)-3-(6-aminopyridin-3-yl)-N-(2-((1R,5S,6s)-3-(3-(trifluoromethyl)phenyl)-3-azabicyclo[3.1.0]hexan-6-yl)ethyl)acrylamide], under setting [1], the IC50 is 0.01 to 0.49 µM.

For the compound `O=C(NCC[C@@H]1[C@H]2CN(c3nc(Cl)ncc3F)C[C@@H]12)c1ccc2nccn2c1` [Example 203, N-(2-((1R,5S,6s)-3-(2-chloro-5-fluoropyrimidin-4-yl)-3-azabicyclo[3.1.0]hexan-6-yl)ethyl)imidazo[1,2-a]pyridine-6-carboxamide], the half-inhibitory concentration (IC50) under setting [1] was 0.01 to 0.49 µM.

Regarding `O=C(NCC[C@@H]1[C@H]2CN(c3nc(Cl)ncc3F)C[C@@H]12)c1cc2cnccc2[nH]1` [Example 204, N-(2-((1R,5S,6s)-3-(2-chloro-5-fluoropyrimidin-4-yl)-3-azabicyclo[3.1.0]hexan-6-yl)ethyl)-1H-pyrrolo[3,2-c]pyridine-2-carboxamide], the IC50 under setting [1] was 0.01 to 0.49 µM.

Take `Nc1ccc(/C=C/C(=O)NCC[C@@H]2[C@H]3CN(c4nc(Cl)ncc4F)C[C@@H]23)cn1` [Example 206, (E)-3-(6-aminopyridin-3-yl)-N-(2-((1R,5S,6s)-3-(2-chloro-5-fluoropyrimidin-4-yl)-3-azabicyclo[3.1.0]hexan-6-yl)ethyl)acrylamide]: the IC50 under setting [1] lay within 0.01 to 0.49 µM.

For the compound `O=C(CCc1cccnc1)NCC[C@@H]1[C@H]2CN(c3nc(Cl)ncc3F)C[C@@H]12` [Example 207, N-(2-((1R,5S,6s)-3-(2-chloro-5-fluoropyrimidin-4-yl)-3-azabicyclo[3.1.0]hexan-6-yl)ethyl)-3-(pyridin-3-yl)propanamide], the IC50 under setting [1] was below 0.01 µM.

For `O=C(NCC[C@@H]1[C@H]2CN(c3nc(Cl)ncc3F)C[C@@H]12)c1cc(-c2cccnc2)on1` [Example 208, N-(2-((1R,5S,6s)-3-(2-chloro-5-fluoropyrimidin-4-yl)-3-azabicyclo[3.1.0]hexan-6-yl)ethyl)-5-(pyridin-3-yl)isoxazole-3-carboxamide], the IC50 under setting [1] was below 0.01 µM.

Regarding `O=C(/C=C/c1ccccn1)NCC[C@@H]1[C@H]2CN(c3nc(Cl)ncc3F)C[C@@H]12` [Example 209, (E)-N-(2-((1R,5S,6s)-3-(2-chloro-5-fluoropyrimidin-4-yl)-3-azabicyclo[3.1.0]hexan-6-yl)ethyl)-3-(pyridin-2-yl)acrylamide], under setting [1], the IC50 lay in the range of 0.01 to 0.49 µM.

As to `O=C(/C=C/c1ccccc1)NCC[C@@H]1[C@H]2CN(c3nc(Cl)ncc3F)C[C@@H]12` [Example 210, N-(2-((1R,5S,6s)-3-(2-chloro-5-fluoropyrimidin-4-yl)-3-azabicyclo[3.1.0]hexan-6-yl)ethyl)cinnamamide], the IC50 under setting [1] was 0.01 to 0.49 µM.

On to `O=C(/C=C/c1ccc(O)nc1)NCC[C@@H]1[C@H]2CN(c3nc(Cl)ncc3F)C[C@@H]12` [Example 211, (E)-N-(2-((1R,5S,6s)-3-(2-chloro-5-fluoropyrimidin-4-yl)-3-azabicyclo[3.1.0]hexan-6-yl)ethyl)-3-(6-hydroxypyridin-3-yl)acrylamide], for which the IC50 under setting [1] lay in the range of 0.01 to 0.49 µM.

For the compound `COc1ccc(/C=C/C(=O)NCC[C@@H]2[C@H]3CN(c4nc(Cl)ncc4F)C[C@@H]23)cn1` [Example 212, (E)-N-(2-((1R,5S,6s)-3-(2-chloro-5-fluoropyrimidin-4-yl)-3-azabicyclo[3.1.0]hexan-6-yl)ethyl)-3-(6-methoxypyridin-3-yl)acrylamide], the IC50 under setting [1] fell in the range of 0.01 to 0.49 µM.

On to `O=C(NCC[C@@H]1[C@H]2CN(c3nc(Cl)ncc3F)C[C@@H]12)c1cnc2nccn2c1` [Example 213, N-(2-((1R,5S,6s)-3-(2-chloro-5-fluoropyrimidin-4-yl)-3-azabicyclo[3.1.0]hexan-6-yl)ethyl)imidazo[1,2-a]pyrimidine-6-carboxamide], for which the IC50 under setting [1] lay in the range of 0.01 to 0.49 µM.

Turning to `O=C(/C=C/c1ccncc1)NCC[C@@H]1[C@H]2CN(c3nc(Cl)ncc3F)C[C@@H]12` [Example 214, (E)-N-(2-((1R,5S,6s)-3-(2-chloro-5-fluoropyrimidin-4-yl)-3-azabicyclo[3.1.0]hexan-6-yl)ethyl)-3-(pyridin-4-yl)acrylamide], the IC50 under setting [1] is 0.01 to 0.49 µM.

Consider `O=C(CCc1ccncc1)NCC[C@@H]1[C@H]2CN(c3nc(Cl)ncc3F)C[C@@H]12` [Example 215, N-(2-((1R,5S,6s)-3-(2-chloro-5-fluoropyrimidin-4-yl)-3-azabicyclo[3.1.0]hexan-6-yl)ethyl)-3-(pyridin-4-yl)propanamide], for which the IC50 under setting [1] lay in the range of 1 to 29 µM.

These data come from patent US12421210B2, “Fused bicyclic heterocycles as therapeutic agents” (NEW YORK UNIVERSITY, priority 2018, dated 2025).
